“And” between values parts separate entries of the source, which are not always exact repeats. Equal entries are not always repeated. “Also recorded” adds a separate entry of the source. Where two headings read alike, the source gives them in different places.
Tests used:
[1] = molecular target: T1, human serotonin 5-HT7 receptor (Homo sapiens, UniProt P34969); assay: cAMP 5-HT7 functional assay; format: cell-based
T1 construct: host or cells: CHO-K1 (with CRE-bla reporter)
Description: Functional assays for 5-HT7 receptor
Test and reference compounds were dissolved in dimethyl sulfoxide (DMSO) at a
concentration of 10 mM. Serial dilutions were prepared in a 96-well microplate in assay
buffer, and 8 to 10 concentrations were tested. For the 5-HT7, adenylyl cyclase activity was
The functional assay was performed on cells expressing the human 5-
CHO-K1 cells were transfected with a beta-
lactamase (bla) reporter gene under the control of the cyclic AMP response element (CRE)
(Life Technologies). Thawed cells were resuspended in stimulation buffer (HBSS, 5 mM
HEPES, 0.5 IBMX, and 0.1% BSA at pH 7.4) at 2x10^5 cells/ml for 5-HT7 receptor. The same
volume (10 μl) of cell suspension was added to tested compounds for the 5 -HT7 receptor.
Samples were loaded onto a white opaque half-area 96-well microplate. The antagonist
The agonist and antagonist were added simultaneously. Cell stimulation was
performed for 1 h at room temperature. After incubation, cAMP measurements were
performed with homogeneous TR-FRET immunoassay using the LANCE Ultra cAMP kit
(PerkinElmer, USA). The volume of 10 μl of EucAMP Tracer Working Solution and 10 μl of
ULight-anti-cAMP Tracer Working Solution were added, mixed, and incubated for 1 h.
TR-FRET signal was read on an EnVision microplate reader (PerkinElmer, USA). IC50 and
EC50 were determined by nonlinear regression analysis using GraphPad Prism 9.0 software.

[2] = Pharmacokinetic study after i.p. administration; format: in vivo; details: mice, 10 mg/kg i.p.
Description: Pharmacokinetic study after i.p. and i.g administration
mg/kg), blood samples were collected from mice under deep terminal anesthesia directly by cardiac puncture into heparinized 1.5 mL tubes at selected time intervals.
The samples were centrifuged at 3,000 × g for 10 min (10 °C), and the plasma samples were stored at -80 °C until the HPLC analysis.
The blood in brain vessels would interfere with the assay of actual brain tissue concentrations.
Therefore, the animals were perfused transcardially with saline solution (0.9% NaCl) for 5 min (10 mL/min). After perfusion, the skull was opened, and the brain was carefully removed and immediately stored at -80 °C until the HPLC analysis.
UHPLC-MS method for pharmacokinetics study
Ultra high-performance liquid chromatography system consisting of Ultimate 3000 RS pump Dionex (Thermo Scientific, San Jose, CA, USA) coupled with high-resolution mass spectrometer with orbitrap analyzer (Q Exactive Focus, Thermo Scientific, San Jose, CA, USA) was used in quantitative analyses of 6 in plasma and brain homogenate. According to the EMA[43] and FDA[42] guidelines on Bioanalytical method validation, the method was fully validated for plasma and partially for brain homogenate.
Before analysis, 50 μL of plasma or brain homogenate was precipitated with an internal
standard of 200 μL acetonitrile (ACN). The mixture was vortexed for 1 min at 1,500 rpm and
centrifuged at 12,074 g for 5 min at 20 °C. The supernatant was then transferred to an
injection vial and analyzed.
mm ID (Phenomenex, Torrance, CA, USA), protected with a guard column SecurityGuard
was performed in gradient elution mode with a flow rate of 0.6 mL/min and the following
composition of mobile phase: A) 0.1% FA in water (v/v) and B) 0.1% FA in ACN/MeOH in
The column was kept at 45 °C during
analysis. Samples were held at 10 °C in a light-tight autosampler unit.
Heated-Electrospray Ionization II interface (HESI-II) in positive ion mode was used with the
following settings: spray voltage; +3.5 kV, S-lens RF level; +70 V, capillary temperature 350
°C, auxiliary gas heater temperature; 350 °C, sheet, and auxiliary gas flow; 45 and 15
arbitrary units, respectively. Full MS mode was used at resolution (m/𝛥m) ̴70,000 for
Xcalibur software (v 4.0) was used for data evaluation.

mice = assay: Four-plate test (FPT); format: in vivo; details: 0.1, 1 and 10 mg/kg i.p., vs control
Description: (§1) Animals and housing conditions
(§2) In all pharmacodynamic in vivo experiments, except for the Barnes maze (BM) task, adult male Albino Swiss (CD-1) mice weighing between 18 and 22 g and purchased from the Animal Breeding Farm of the Faculty of Pharmacy, Jagiellonian University Medical College were used. In BM task, C57BL/6J mice of the same weight (Animalab, Poland) were used.
Animals were housed in cages (10 mice per cage) at a constant temperature of 22 ± 2 °C, humidity of 55 ± 10%, and a light/dark (12:12) cycle (lights on at 7 AM). Before the experiments, the animals had unlimited access to food and water. […]
Briefly, mice were individually placed in a glass cylinder (25 cm high, 10 cm in diameter) containing 11 cm of water maintained at 23–25 °C and were left therein for 6 min. […] The total duration of immobility was measured during the final 4 min of a 6-min test session. […]
The four-plate apparatus (FPT; Bioseb, France) consists of a cage (25 × 18 × 16 cm) that is floored with four rectangular metal plates (11 × 8 cm). […] The number of punished crossings was counted […]
of the closed arms. […] The following parameters were measured in this test: time spent in open arms of the EPM device and the number of entries to open arms. […]

[3] = tested on: mice treated with scopolamine; assay: Barnes maze (BM) task; format: in vivo, C57BL/6J mice
Description: as §1, §2
Animals were housed in cages (10 mice per cage) at a constant temperature of 22 ± 2 °C, humidity of 55 ± 10%, and a light/dark (12:12) cycle (lights on at 7 AM). Before the experiments, the animals had unlimited access to food and water. Specified conditions for the maintenance of mice were ensured throughout the experiments, including tree bedding (Transwior, Poland) and cage enrichment (tunnels, nesting material, wooden igloos, etc.). For the behavioral test, the mice were selected randomly; each group consisted of 7-12 mice. The experiments were performed between 9 AM and 3 PM. After in vivo tests, the animals were […]
Ethical approval statement
The procedures for the maintenance and treatment of laboratory animals were approved by the 1st Local Ethics Committee of the Jagiellonian University in Krakow (Approvals No.
524/2021, 618/2022), and the treatment of animals was in full accordance with ethical […]
Drugs and dose selection for the in vivo tests
For in vivo assays 6 was suspended in 1% Tween 80 (Sigma Aldrich, Poland) and administered intraperitoneally (i.p.) 60 min before the acquisition trial of the passive avoidance (PA) task, BM task and 60 min before the forced swim test (FST), four-plate test (FPT) and elevated plus maze (EPM) test. Doses 10 mg/kg and 30 mg/kg were the starting […]
doses for behavioral assays. Lower doses were also assessed if at least one of them was […]
Scopolamine hydrobromide used at the dose of 1 mg/kg for the induction of learning and memory deficits was supplied by Sigma Aldrich (Poland). The dose of scopolamine was chosen based on our previous studies[44,45] and available literature data.[46] […]
Effect on spatial learning and memory – Barnes maze task
Spatial learning and memory in mice were also assessed using the BM task.[47] This task was performed with the BM apparatus (Panlab-Harvard Apparatus, Spain). It consists of a circular, dry, open platform surface equipped with 18 holes around the perimeter of the platform and a small dark recessed chamber located under one of them. Visual extra-maze cues (pictures of colored geometric figures with contrasting backgrounds placed at a distance of 1 m from the platform) were provided to facilitate learning. A weak aversive stimulus (light 600 lx) was applied to increase the animals’ motivation to escape from the circular platform.
The spatial acquisition trial was performed during the first 4 days of the experiment. On the first day of the test, an additional adaptation period preceded a proper trial. In this phase, mice were individually placed in a cylindrical black start chamber in the middle of the circular maze. Ten seconds later, the mouse was released from the start chamber, the light was turned on, and the animal was gently guided to the escape box (a small dark recessed chamber under the BM platform), where it remained for the next 2 min. This phase was not preceded by drug […]
In the spatial acquisition phase, each mouse was subjected to four trials daily, keeping 15-min intervals between each trial. […]

[4] = 10 mg/kg i.p. + scopolamine, vs scopolamine control
[5] = 10 mg/kg, retention trial, vs scopolamine control

T1 sequence (P34969 whole entry): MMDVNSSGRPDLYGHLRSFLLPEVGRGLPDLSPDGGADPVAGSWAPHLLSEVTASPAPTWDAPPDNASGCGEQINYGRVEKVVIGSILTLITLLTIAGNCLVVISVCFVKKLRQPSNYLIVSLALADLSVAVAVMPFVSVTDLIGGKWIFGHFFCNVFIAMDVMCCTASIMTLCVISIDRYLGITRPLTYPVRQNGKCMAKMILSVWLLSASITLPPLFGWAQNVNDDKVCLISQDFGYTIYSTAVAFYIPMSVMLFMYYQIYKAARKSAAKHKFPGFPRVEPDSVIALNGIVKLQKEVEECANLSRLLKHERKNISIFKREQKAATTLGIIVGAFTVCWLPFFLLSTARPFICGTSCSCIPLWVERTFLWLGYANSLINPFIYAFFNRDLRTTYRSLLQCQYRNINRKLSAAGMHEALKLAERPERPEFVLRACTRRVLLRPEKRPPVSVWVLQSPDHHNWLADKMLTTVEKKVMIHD

## O[C@H](CNCC1CC1)[C@H](Cc1ccccc1)NC1c2ccccc2-c2ccccc21 [Compound 6]
[1]; read-out: 5-HT7 agonist mode E max % [10^-5 M]
  Emax: 8%
[1]; read-out: 5-HT7 antagonist mode E max %
  Emax: 0%
[2]; ICR-CD1, mouse, brain, ip, 10 mg/kg, read-out: brain Tmax (converted)
  Tmax: 0.917 h
[2]; ICR-CD1, mouse, brain/plasma, ip, 10 mg/kg, read-out: Kp (AUCbrain/AUCplasma), brain-to-plasma ratio
  Kp: 11.1
[2]; ICR-CD1, mouse, ip, plasma
  MRT: 3.62 h
[2]; ICR-CD1, mouse, ip, plasma, read-out: λz (converted)
  k el: 7.5e-05 s⁻¹
[2]; ICR-CD1, mouse, plasma, ip, 10 mg/kg
  Cmax: 0.43 ± 0.0579 µg/mL
[2]; ICR-CD1, mouse, plasma, ip, 10 mg/kg, plasma, read-out: Half-life
  half-life: 2.69 ± 0.237 h
[2]; ICR-CD1, mouse, plasma, ip, 10 mg/kg, plasma, read-out: Vss/F
  Vd/F: 38.2 ± 4.47 L/kg
[2]; ICR-CD1, mouse, plasma, ip, 10 mg/kg, plasma, read-out: Vz/F
  Vd/F: 40.9 ± 4.95 L/kg
[2]; ICR-CD1, mouse, plasma, ip, 10 mg/kg, read-out: plasma Tmax (converted)
  Tmax: 0.389 h
[2]
  brain AUCtotal: 650,923.00 ± 152,288.00 min.ng/g
  plasma AUCtotal: 58,804.62 ± 3,318.21 min.ng/mL
[2]; plasma
  CL: 10.2 ± 0.6 L/h/kg
[2]; plasma, 10 mg/kg
  Vz/F: ~ 41 L/kg
  half-life: ~ 161 min
[2]; 10 mg/kg
  Kp (AUCbrain/AUCplasma), brain-to-plasma ratio: 11
  brain Cmax: 833.00 ± 62.32 ng/g and 833 ng/g
  plasma Cmax: 0.43 µg/mL
mice
  number of punished crossings: increased the number of punished crossings; also recorded: statistically significant increase in the number of punished crossings
[3]; [4]
  latency to target, acquisition trial: Statistically significant differences were also observed on day 4; also recorded: statistically significantly reduced latency to target
  number of errors, acquisition phase (days 1-4): no statistically significant differences in the number of errors
[3]; 10 mg/kg, drug-off trial
  number of errors, day 5: no significant differences among groups
[3]; [5]
  latency to former target location, day 12: A similar effect was noted; also recorded: significantly shortened the latency to former target location
  number of errors, day 12: significantly reduced number of errors made; also recorded: reduced the number of errors
